pEC50: −log10 of the molar value.
Tests used:
[1] = tested on: veines saphènes de lapin; assay: Contraction of isolated rabbit saphenous veins produced by KCl (40 mM); format: cell-based; settings: for augmentation des contractions des veines saphènes de lapin produites par le KCl: KCl 40 mM, compounds 10 nM à 30 mM; for pEC50: increase of KCl (40 mM) contraction of rabbit saphenous veins, read-out: DE₅₀
Text: L'effet contractile est mesuré in vitro : • par la force de contraction développée par des anneaux vasculaires quiescents ou stimulés (soit électriquement soit par des agents physiologiques) et maintenus dans des conditions isométriques, • par la pression développée par des réseaux vasculaires perfusés à débit constant.
Les composés de formule (I) et leurs sels éventuels augmentent la contraction des veines saphènes animales produite par la noradrénaline et la dépolarisation (solution hyperpotassique) sans affecter, dans la majorité des cas, les réponses contractiles artérielles. A titre illustratif, les composés des exemples 1, 2, 3, 5 (10 nM à 30 mM) augmentent de plus de 40 % (DE₅₀ + 0,3 microM) les contractions des veines saphènes de lapin produites par le KCl (40 mM).

[2] = tested on: hyperperméabilité vasculaire induite par le zymosan; assay: Vascular hyperpermeability induced by zymosan, in vivo; settings: oral administration of 1-20 mg/kg
Text: La perméabilité vasculaire est étudiée in vivo et in vitro par la mesure de l'extravasation d'albumine ou de colorant liant l'albumine (Bleu Evans). In vivo, l'hyperperméabilité est induite par l'injection d'une solution d'histamine, de bradykinine ou de zymosan. Les modèles in vitro permettent de réaliser des hyperpressions (sur un territoire vasculaire isolé) et/ou des réactions vasculaires inflammatoires.
A titre illustratif, les composés des exemples 1, 2, 3, 5 inhibent l'hyperperméabilité vasculaire induite par le zymosan après administration orale de 1-20 mg/kg.

[3] = Free radical scavenging, DPPH model; format: biochemical; settings: DPPH as stable free radical, in vitro
Text: L'effet "piégeur de radicaux libres" global est étudié in vitro par un modèle utilisant le 1,1-diphényl-2-picrylhydrazyl (DPPH) comme radical libre stable, méthode dérivée de celle décrite par Lamaison et col., Plantes Médic. et Phytothérapie, XXII, 1988, 231-234.

[4] = tested on: rat; assay: Carrageenan-induced pleurisy in the rat; format: in vivo; settings: 5 mg/kg i.p. twice; for migration leucocytaire dans la cavité pleurale: 6 hours after carrageenan injection; for oedème: 6 hours after carrageenan injection into the pleural cavity
Experimental: L'activité antiinflammatoire est démontrée par la mesure de l'inhibition de l'oedème et de la migration leucocytaire après induction d'une pleurésie chez le rat par injection de carragénine dans la cavité pleurale (Almeida et col., J. Pharmacol. Exp. Therap., 1980, 214 : 74).
Le composé des exemples 31, 3, 5 administrés deux fois en i.p. à la dose de 5 mg/kg inhibent l'oedème et la migration leucocytaire dans la cavité pleurale, 6 heures après injection de carragénine dans le modèle de la pleurésie chez le rat.

Which “augmentation des contractions des veines saphènes de lapin produites par le KCl” value [1] does the source give for `O=c1c(=NNc2nc3ccccc3s2)c(=O)c2ccccc12` [exemple 1, 2-(Benzothiazol-2-yl-hydrazono)-2.3-dihydro-1.3-dioxo-1H-indene] here?
The value was greater than 40%.

And the pEC50 [1]?
The pEC50 was roughly 6.52.

And the “hyperperméabilité vasculaire induite par le zymosan” value [2]?
The value was “inhibent”.

For `O=c1c(=NNc2nc3ccccc3o2)c(=O)c2ccccc12` [exemple 2, 2-(Benzoxazol-2-yl-hydrazono)-2.3-dihydro-1.3-dioxo-1H-indene], which “augmentation des contractions des veines saphènes de lapin produites par le KCl” value [1] is on record?
The value was greater than 40%.

What about the pEC50 [1] of the same molecule?
Its pEC50 is roughly 6.52.

What about the effet antiradicalaire [3] of the same molecule?
The effet antiradicalaire was “effet antiradicalaire”.

What about the “hyperperméabilité vasculaire induite par le zymosan” value [2] of the same molecule?
The value was “inhibent”.

Which results are given for `O=c1c(=NNc2nc3ccccc3[nH]2)c(=O)c2ccccc12` [exemple 3, 2-(Benzimidazol-2-yl-hydrazono)-2.3-dihydro-1.3-dioxo-1H-indene]?
migration leucocytaire dans la cavité pleurale [4]: inhibent; oedème [4]: inhibent; augmentation des contractions des veines saphènes de lapin produites par le KCl [1]: > 40%; pEC50 [1]: ~6.52; hyperperméabilité vasculaire induite par le zymosan [2]: inhibent

For `O=c1c(=NNc2nc3cnccc3[nH]2)c(=O)c2ccccc12` [exemple 5, 2-(5-Azabenzimidazol-2-yl-hydrazono)-2.3-dihydro-1.3-dioxo-1H-indene], which “migration leucocytaire dans la cavité pleurale” value [4] is on record?
Its value is “inhibent”.

What about the oedème [4] of the same molecule?
The oedème was “inhibent”.

And the “augmentation des contractions des veines saphènes de lapin produites par le KCl” value [1]?
The value was greater than 40%.

And the pEC50 [1]?
Its pEC50 is roughly 6.52.

What about the “hyperperméabilité vasculaire induite par le zymosan” value [2] of the same molecule?
Its value is “inhibent”.

With `O=C(NN=c1c(=O)c2cccnc2c1=O)Nc1ccccc1` [exemple 6, 5.7-Dioxo-6-(phenylaminocarbonylhydrazono)cyclopenta[b]pyridine] as the molecule, how does the effet antiradicalaire [3] read?
Its effet antiradicalaire is “effet antiradicalaire”.
